Results on 33 compounds are retold here after patent US20140243335A1, “SUBSTITUTED HYDOXAMIC ACIDS AND USES THEREOF” (Millennium Pharmaceuticals, Inc., priority 2010, published 2014).

For this test, the target named is T1, purified human HDAC6 (Homo sapiens, UniProt Q9UBN7).
T1 construct: purchased BPS Bioscience 5006
T1 sequence (Q9UBN7 1-1215): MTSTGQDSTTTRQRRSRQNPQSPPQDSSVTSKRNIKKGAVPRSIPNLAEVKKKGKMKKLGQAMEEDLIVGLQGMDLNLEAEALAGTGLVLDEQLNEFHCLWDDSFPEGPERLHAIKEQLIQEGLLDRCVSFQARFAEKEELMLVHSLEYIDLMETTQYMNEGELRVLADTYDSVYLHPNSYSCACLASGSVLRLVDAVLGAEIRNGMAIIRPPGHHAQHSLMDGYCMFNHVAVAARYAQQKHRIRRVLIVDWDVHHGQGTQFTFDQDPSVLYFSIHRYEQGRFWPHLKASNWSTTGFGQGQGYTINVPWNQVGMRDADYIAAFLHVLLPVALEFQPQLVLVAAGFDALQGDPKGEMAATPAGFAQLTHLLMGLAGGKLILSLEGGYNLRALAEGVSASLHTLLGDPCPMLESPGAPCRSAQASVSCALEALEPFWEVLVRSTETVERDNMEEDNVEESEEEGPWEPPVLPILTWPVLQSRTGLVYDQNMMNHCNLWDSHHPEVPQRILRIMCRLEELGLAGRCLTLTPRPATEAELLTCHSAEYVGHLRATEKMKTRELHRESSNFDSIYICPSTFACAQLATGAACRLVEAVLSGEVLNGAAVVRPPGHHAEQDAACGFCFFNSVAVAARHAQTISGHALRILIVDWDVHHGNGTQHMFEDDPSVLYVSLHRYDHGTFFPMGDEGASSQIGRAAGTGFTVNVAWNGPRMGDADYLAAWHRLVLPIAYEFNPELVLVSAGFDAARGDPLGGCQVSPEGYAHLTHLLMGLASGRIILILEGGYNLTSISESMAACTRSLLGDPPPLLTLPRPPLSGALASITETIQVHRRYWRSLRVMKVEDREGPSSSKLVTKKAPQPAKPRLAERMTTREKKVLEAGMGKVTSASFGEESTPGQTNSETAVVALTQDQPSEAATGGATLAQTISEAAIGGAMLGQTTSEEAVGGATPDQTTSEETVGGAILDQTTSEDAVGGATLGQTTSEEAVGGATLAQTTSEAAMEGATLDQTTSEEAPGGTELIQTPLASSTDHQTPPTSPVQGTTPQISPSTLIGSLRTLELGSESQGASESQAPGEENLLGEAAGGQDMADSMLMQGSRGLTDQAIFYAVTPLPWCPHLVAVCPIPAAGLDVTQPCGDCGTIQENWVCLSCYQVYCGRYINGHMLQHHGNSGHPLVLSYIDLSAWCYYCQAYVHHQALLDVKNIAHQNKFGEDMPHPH
Nature of the test: HDAC6 Enzyme Assay. Format: biochemical. Conditions: HDAC6 inhibition at a compound concentration of 0.412 μM; read-out: Percent Inhibition at 0.412 μM.

Structures are written as SMILES.

A word on the inhibition: it is the percentage by which the read-out fell short of the control. For the compound `O=C(NO)c1ccc2c(c1)CC(CCc1ccccc1)CC2` (stereo not drawn) [Compound I-93, N-hydroxy-7-(2-phenylethyl)-5,6,7,8-tetrahydronaphthalene-2-carboxamide], the inhibition at 0.412 µM worked out at 74%. The value for `O=C(Nc1ccccc1)NC1CCc2ccc(C(=O)NO)cc2C1` (stereo not drawn) [Compound I-94, 7-[(anilinocarbonyl)amino]-N-hydroxy-5,6,7,8-tetrahydronaphthalene-2-carboxamide] was 96%; that for `O=C(NO)c1ccc2c(c1)CC(Nc1ccncc1)CC2` (stereo not drawn) [Compound I-95, N-hydroxy-7-(pyridin-4-ylamino)-5,6,7,8-tetrahydronaphthalene-2-carboxamide] was 71%. On to `O=C(NO)c1ccc2c(c1)CC(NS(=O)(=O)c1ccccc1)CC2` (stereo not drawn) [Compound I-96, N-hydroxy-7-[(phenylsulfonyl)amino]-5,6,7,8-tetrahydronaphthalene-2-carboxamide], for which the inhibition at 0.412 µM came out at 92%. As for `CC(=O)Nc1cc(C2CCc3ccc(C(=O)NO)cc3C2)ccn1` (stereo not drawn) [Compound I-97, 7-[2-(acetylamino)pyridin-4-yl]-N-hydroxy-5,6,7,8-tetrahydronaphthalene-2-carboxamide], the figure is 92%; as for `Nc1cc(C2CCc3ccc(C(=O)NO)cc3C2)ncn1` (stereo not drawn) [Compound I-98, 7-(6-aminopyrimidin-4-yl)-N-hydroxy-5,6,7,8-tetrahydronaphthalene-2-carboxamide], 93%; as for `O=C(NO)c1ccc2c(c1)CCC(c1ccncc1)C2` (stereo not drawn) [Compound I-99, N-hydroxy-6-pyridin-4-yl-5,6,7,8-tetrahydronaphthalene-2-carboxamide], 77%.

Regarding `O=C(NO)c1ccc2c(c1)CCC(c1ccccc1)C2` (stereo not drawn) [Compound I-100, N-hydroxy-6-phenyl-5,6,7,8-tetrahydronaphthalene-2-carboxamide], the inhibition at 0.412 µM amounted to 62%.

For `O=C(NO)c1ccc2c(c1)CCC(c1ccc(Cl)cc1)C2` (stereo not drawn) [Compound I-101, 6-(4-chlorophenyl)-N-hydroxy-5,6,7,8-tetrahydronaphthalene-2-carboxamide], the inhibition at 0.412 µM turned out to be 55%. The value for `CC(=O)Nc1cccc(C2CCc3cc(C(=O)NO)ccc3C2)c1` (stereo not drawn) [Compound I-102, 6-[3-(acetylamino)phenyl]-N-hydroxy-5,6,7,8-tetrahydronaphthalene-2-carboxamide] was 85%; that for `O=C(NO)c1ccc2c(c1)CCC(CCc1cccc(F)c1)C2` (stereo not drawn) [Compound I-103, 6-[2-(3-fluorophenyl)ethyl]-N-hydroxy-5,6,7,8-tetrahydronaphthalene-2-carboxamide] was 63%; that for `COc1ccccc1C1CCc2cc(C(=O)NO)ccc2C1` (stereo not drawn) [Compound I-104, N-hydroxy-6-(2-methoxyphenyl)-5,6,7,8-tetrahydronaphthalene-2-carboxamide] was 56%.

For `COc1ccc(C2CCc3cc(C(=O)NO)ccc3C2)cc1` (stereo not drawn) [Compound I-105, N-hydroxy-6-(4-methoxyphenyl)-5,6,7,8-tetrahydronaphthalene-2-carboxamide], the inhibition at 0.412 µM was 43%. The value for `O=C(NO)c1ccc2c(c1)CCC(NCc1ccc(Cl)cc1)C2` (stereo not drawn) [Compound I-106, 6-[(4-chlorobenzyl)amino]-N-hydroxy-5,6,7,8-tetrahydronaphthalene-2-carboxamide] was 90%; that for `O=C(NO)c1ccc2c(c1)CCC(NCc1ccncc1)C2` (stereo not drawn) [Compound I-107, N-hydroxy-6-[(pyridin-4-ylmethyl)amino]-5,6,7,8-tetrahydronaphthalene-2-carboxamide] was 84%; that for `O=C(NO)c1ccc2c(c1)CCC(Oc1ccncc1)C2` (stereo not drawn) [Compound I-108, N-hydroxy-6-(pyridin-4-yloxy)-5,6,7,8-tetrahydronaphthalene-2-carboxamide] was 95%.

On to `O=C(NO)c1ccc2c(c1)CCC(c1ccccc1C(F)(F)F)C2` (stereo not drawn) [Compound I-109, N-hydroxy-6-[2-(trifluoromethyl)phenyl]-5,6,7,8-tetrahydronaphthalene-2-carboxamide], for which the inhibition at 0.412 µM amounted to 53%. `COc1cccc(C2CCc3cc(C(=O)NO)ccc3C2)c1` (stereo not drawn) [Compound I-110, N-hydroxy-6-(3-methoxyphenyl)-5,6,7,8-tetrahydronaphthalene-2-carboxamide]: the inhibition at 0.412 µM worked out at 42%.

Take `CC(C)(C)C(=O)NC1CCc2cc(C(=O)NO)ccc2C1` (stereo not drawn) [Compound I-111, 6-[(2,2-dimethylpropanoyl)amino]-N-hydroxy-5,6,7,8-tetrahydronaphthalene-2-carboxamide]: the inhibition at 0.412 µM amounted to 75%.

On to `COc1cccc(C(=O)NC2CCc3cc(C(=O)NO)ccc3C2)c1` (stereo not drawn) [Compound I-112, N-hydroxy-6-[(3-methoxybenzoyl)amino]-5,6,7,8-tetrahydronaphthalene-2-carboxamide], for which the inhibition at 0.412 µM was determined as 87%.

Regarding `O=C(NO)c1ccc2c(c1)CCC(c1cccc(C(F)(F)F)c1)C2` (stereo not drawn) [Compound I-113, N-hydroxy-6-[3-(trifluoromethyl)phenyl]-5,6,7,8-tetrahydronaphthalene-2-carboxamide], the inhibition at 0.412 µM is 53%. As for `CC1(C(=O)NC2CCc3ccc(C(=O)NO)cc3C2)CCNCC1` (stereo not drawn) [Compound I-114, N-{7-[(hydroxyamino)carbonyl]-1,2,3,4-tetrahydronaphthalen-2-yl}-4-methylpiperidine-4-carboxamide], the figure is 82%; as for `O=C(NO)c1ccc2c(c1)CC(c1cccc(C(F)(F)F)c1)CC2` (stereo not drawn) [Compound I-115, N-hydroxy-7-[3-(trifluoromethyl)phenyl]-5,6,7,8-tetrahydronaphthalene-2-carboxamide], 81%.

Take `COc1ccccc1C1CCc2ccc(C(=O)NO)cc2C1` (stereo not drawn) [Compound I-116, N-hydroxy-7-(2-methoxyphenyl)-5,6,7,8-tetrahydronaphthalene-2-carboxamide]: the inhibition at 0.412 µM turned out to be 81%.

`O=C(NO)c1ccc2c(c1)CC(OCc1ccc(Cl)cc1)CC2` (stereo not drawn) [Compound I-117, 7-[(4-chlorobenzyl)oxy]-N-hydroxy-5,6,7,8-tetrahydronaphthalene-2-carboxamide]: the inhibition at 0.412 µM is 92%. The value for `CCOC1CCc2ccc(C(=O)NO)cc2C1` (stereo not drawn) [Compound I-118, 7-ethoxy-N-hydroxy-5,6,7,8-tetrahydronaphthalene-2-carboxamide] was 75%. The value for `COc1cccc(C2CCc3ccc(C(=O)NO)cc3C2)c1` (stereo not drawn) [Compound I-119, N-hydroxy-7-(3-methoxyphenyl)-5,6,7,8-tetrahydronaphthalene-2-carboxamide] was 74%.

With `O=C(NO)c1ccc2c(c1)CC(c1cccnc1)CC2` (stereo not drawn) [Compound I-120, N-hydroxy-7-pyridin-3-yl-5,6,7,8-tetrahydronaphthalene-2-carboxamide], the inhibition at 0.412 µM was found to be 85%. Consider `O=C(NO)c1ccc2c(c1)CCC(c1cccnc1)C2` (stereo not drawn) [Compound I-121, N-hydroxy-6-pyridin-3-yl-5,6,7,8-tetrahydronaphthalene-2-carboxamide], for which the inhibition at 0.412 µM was 80%. For the compound `COc1ccccc1C(=O)NC1CCc2cc(C(=O)NO)ccc2C1` (stereo not drawn) [Compound I-122, N-hydroxy-6-[(2-methoxybenzoyl)amino]-5,6,7,8-tetrahydronaphthalene-2-carboxamide], the inhibition at 0.412 µM stood at 88%.

Consider `Cn1cccc1C(=O)N1C2CCC1c1cc(C(=O)NO)ccc12` (stereo not drawn) [Compound I-123, N-hydroxy-9-[(1-methyl-1H-pyrrol-2-yl)carbonyl]-1,2,3,4-tetrahydro-1,4-epiminonaphthalene-6-carboxamide], for which the inhibition at 0.412 µM amounted to 90%. On to `O=C(NO)c1ccc2c(c1)CCC(OCc1ccc(Cl)cc1)C2` (stereo not drawn) [Compound I-125, 6-[(4-chlorobenzyl)oxy]-N-hydroxy-5,6,7,8-tetrahydronaphthalene-2-carboxamide], for which the inhibition at 0.412 µM was 87%.

Turning to `CC1(C(=O)Nc2cc(OC3CCc4cc(C(=O)NO)ccc4C3)ccn2)CCNCC1` (stereo not drawn) [Compound I-148, N-[4-({6-[(hydroxyamino)carbonyl]-1,2,3,4-tetrahydronaphthalen-2-yl}oxy)pyridin-2-yl]-4-methylpiperidine-4-carboxamide], the inhibition at 0.412 µM came out at 93%.
